Measurements reported in patent KR20170082372A, “Sirt6의 활성 조절용 조성물” (한국화학연구원, priority 2016, dated 2017).

Target: T1, recombinant Sirt6 enzyme (Homo sapiens, UniProt Q8N6T7)
T1 construct: purchased Cyclex CY-1156
Test: CycLex Sirt6 deacetylase fluorometric assay (cat. CY-1156)
Type: biochemical
Details: 1 h, room temperature; for EC50: increase of Sirt6 deacetylase activity; for activity at 5 µM (stock): screening at 5uM, no test sample control = 100

T1 sequence (Q8N6T7 whole entry): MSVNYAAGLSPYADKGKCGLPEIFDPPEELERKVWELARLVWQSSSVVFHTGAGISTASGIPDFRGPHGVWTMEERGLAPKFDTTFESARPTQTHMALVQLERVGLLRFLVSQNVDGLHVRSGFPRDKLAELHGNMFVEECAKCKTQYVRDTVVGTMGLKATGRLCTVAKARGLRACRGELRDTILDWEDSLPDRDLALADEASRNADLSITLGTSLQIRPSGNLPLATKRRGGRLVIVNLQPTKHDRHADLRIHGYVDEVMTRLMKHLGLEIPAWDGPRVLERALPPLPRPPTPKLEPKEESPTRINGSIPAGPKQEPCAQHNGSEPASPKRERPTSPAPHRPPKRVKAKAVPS

| SMILES | EC50 | activity at 5 µM (stock) |
| --- | --- | --- |
| NNc1nc2c(-c3cccc(C(F)(F)F)c3)nnn2c2ccccc12 [화학식 1, 5-hydrazinyl-3-(3-(trifluoromethyl)phenyl)-[1,2,3]triazolo[1,5-a]quinazoline] | 5 µM | ≥ 200% |
| COc1ccc(-c2nnn3c2nc(NC(C)c2ccccc2)c2ccccc23)cc1 (stereo not shown) [화학식 2, 3-(4-methoxyphenyl)-N-(1-phenylethyl)-[1,2,3]triazolo[1,5-a]quinazolin-5-amine] | 2.8 µM | ≥ 200% |
